# Results reported in patent US20120214862A1, “MODULATION OF FACTOR 7 EXPRESSION” (ISIS Pharmaceuticals, Inc., priority 2009, published 2012).
# In the oligonucleotide strings, read from the 5' end, every base follows the letter of its sugar. An asterisk marks phosphorothioate; unmarked linkages are phosphodiester. Other units and linkages are bracketed, terminal groups are in braces. A string of capitals states the bases alone. e = 2'-O-(2-methoxyethyl) (MOE); [5mC] = 5-methylcytosine; d = 2'-deoxy (DNA)
# System: human Factor 7 mRNA
# Experiment: Antisense inhibition of human Factor 7 mRNA in HepB3 cells, lipofectin, 50 nM, real-time RT-PCR
# Type: cell-based
# Conditions: Example 1; HepB3 cells, lipofectin, 50 nM, ~24 h, relative to untreated control cells
# Procedure: Antisense oligonucleotides targeted to a Factor 7 nucleic acid were tested for their effects on Factor 7 mRNA in vitro. Cultured HepB3 cells at a density of 4,000 cells per well were transfected using lipofectin reagent with 50 nM antisense oligonucleotide. After a treatment period of approximately 24 hours, RNA was isolated from the cells and Factor 7 mRNA levels were measured by real-time RT-PCR, as described herein. Factor 7 mRNA levels were adjusted according to total RNA content as measured by RIBOGREEN®. Results are presented as percent inhibition of Factor 7, relative to untreated control cells.
# (§1) Antisense oligonucleotides targeted to a Factor 7 nucleic acid were designed and tested for their effects on Factor 7 mRNA in vitro. Certain antisense oligonucleotides from Table 3 were also retested for their effects on Factor 7 mRNA in vitro. Cultured HepB3 cells at a density of 4,000 cells per well were transfected using lipofectin reagent with 50 nM antisense oligonucleotide. After a treatment period of approximately 24 hours, RNA was isolated from the cells and Factor 7 mRNA levels were measured by real-time RT-PCR, as described herein. Human Factor 7 primer probe set RTS 2927 was used to measure mRNA levels. Factor 7 mRNA levels were adjusted according to total RNA content as measured by RIBOGREEN®. Results are presented as percent inhibition of Factor 7, relative to untreated control.
# as §1, with “tested” for “tested for their effects on Factor 7 mRNA in vitro. Certain antisense oligonucleotides from Table 3 were also retested”
# These gapmers were designed by creating gapmers shifted slightly upstream and downstream (i.e. “microwalk”) of the original gapmers from Table 7. Gapmers were also created with various motifs, e.g. 5-10-5 MOE, 3-14-3 MOE, and 2-13-5 MOE. These gapmers were tested in vitro. Cultured HepB3 cells at a density of 4,000 cells per well were transfected using lipofectin reagent with 50 nM antisense oligonucleotide. After a treatment period of approximately 24 hours, RNA was isolated from the cells and Factor 7 mRNA levels were measured by real-time RT-PCR. Factor 7 mRNA levels were adjusted according to total RNA content, as measured by RIBOGREEN®. Results are presented as percent inhibition of Factor 7, relative to untreated control cells.
row,Substance,% Inhibition (human Factor 7 mRNA)
1,407633 (antisense eG*e[5mC]*eA*eG*eG*d[5mC]*dA*dG*dT*d[5mC]*d[5mC]*dT*dG*dG*dG*eT*e[5mC]*eA*eT*e[5mC]) [compound 407633],71%
2,407659 (antisense eG*eA*eT*eG*eG*d[5mC]*dA*dT*d[5mC]*dG*dA*dG*dT*d[5mC]*d[5mC]*eA*e[5mC]*eT*e[5mC]*eT) [compound 407659],55%
3,407920 (antisense eT*eG*eA*eG*e[5mC]*dG*d[5mC]*dA*dT*dG*dA*dG*d[5mC]*dT*dT*eT*eT*eG*e[5mC]*eA) [compound 407920],65%
4,407602 (antisense e[5mC]*eT*eG*e[5mC]*eA*dG*d[5mC]*d[5mC]*dA*dG*dG*d[5mC]*dA*dG*d[5mC]*e[5mC]*e[5mC]*eT*eG*eA) [compound 407602],81%
5,407962 (antisense eT*eT*eG*eG*eA*dA*dG*d[5mC]*dA*dG*d[5mC]*d[5mC]*d[5mC]*dA*d[5mC]*eG*eG*e[5mC]*eT*eG) [compound 407962],41%
6,407647 (antisense eG*e[5mC]*eA*eG*e[5mC]*d[5mC]*dG*dT*dT*dT*dA*dT*dT*dG*dT*eG*eA*eA*eG*e[5mC]) [compound 407647],83%

# Same assay, conditions: Example 4; HepB3 cells, lipofectin, 50 nM, ~24 h, relative to untreated control
row,Substance,% Inhibition (human Factor 7 mRNA)
1,422271 (antisense e[5mC]*eT*dG*dA*dG*d[5mC]*dG*d[5mC]*dG*dG*dA*dA*dG*dA*dA*eG*eG*eG*eA*e[5mC]) [compound 422271],32%

# Same assay, conditions: Example 6 microwalk, nucleobases 15098 to 15122 of SEQ ID NO: 1; HepB3, lipofectin, 50 nM, ~24 h
row,Substance,% Inhibition (human Factor 7 mRNA)
1,422289 (antisense eG*eA*d[5mC]*dA*dG*d[5mC]*dA*d[5mC]*dA*d[5mC]*dA*dT*dG*dG*dA*eG*eT*e[5mC]*eA*eG) [compound 422289],34%
2,422211 (antisense eA*e[5mC]*eA*dG*d[5mC]*dA*d[5mC]*dA*d[5mC]*dA*dT*dG*dG*dA*dG*dT*d[5mC]*eA*eG*e[5mC]) [compound 422211],42%

# Same assay, conditions: HepB3 cells, lipofectin, 50 nM antisense oligonucleotide, approximately 24 hours, primer probe set RTS 2927, relative to untreated control
row,Substance,% Inhibition of human Factor 7 mRNA levels
1,416474 (antisense eT*eG*eT*e[5mC]*eT*dG*d[5mC]*d[5mC]*dT*d[5mC]*d[5mC]*dA*dG*dG*dA*e[5mC]*eA*eA*e[5mC]*e[5mC]) [compound 416474],40%
2,416529 (antisense eG*eG*eG*e[5mC]*eT*dG*dA*dG*dA*d[5mC]*dT*dG*dA*dG*dG*eT*e[5mC]*eA*eG*e[5mC]) [compound 416529],18%
3,416510 (antisense eG*eA*e[5mC]*eG*eA*dG*dG*d[5mC]*d[5mC]*dT*d[5mC]*dA*dG*dG*dT*eG*eG*eA*e[5mC]*eG) [compound 416510],30%
4,416485 (antisense eG*eA*eG*e[5mC]*eT*dA*d[5mC]*dA*dG*d[5mC]*d[5mC]*dT*d[5mC]*dA*dA*eA*e[5mC]*eA*eT*e[5mC]) [compound 416485],7%
5,416535 (antisense eG*e[5mC]*eA*eG*eG*dA*dT*dG*d[5mC]*dA*d[5mC]*dA*d[5mC]*d[5mC]*dA*eG*eG*eG*e[5mC]*eT) [compound 416535],47%
6,416544 (antisense eA*eT*e[5mC]*e[5mC]*e[5mC]*dA*dT*dT*dT*dT*d[5mC]*d[5mC]*d[5mC]*dA*dG*eG*eA*eG*e[5mC]*e[5mC]) [compound 416544],58%
7,416424 (antisense eG*eA*eG*eA*e[5mC]*d[5mC]*dA*dT*dG*dA*dT*dG*dA*dA*dA*eT*e[5mC]*eT*e[5mC]*eT) [compound 416424],27%
8,416476 (antisense eG*e[5mC]*eA*eG*eG*dT*dG*dG*dG*d[5mC]*dT*dT*dG*dG*d[5mC]*eT*eG*eA*eA*eG) [compound 416476],58%
9,416504 (antisense eT*e[5mC]*eA*eG*eA*dA*dA*dA*dG*d[5mC]*dT*d[5mC]*dT*d[5mC]*dA*eA*eG*eA*eA*e[5mC]) [compound 416504],0%
10,416427 (antisense e[5mC]*e[5mC]*e[5mC]*eT*eG*dA*dA*dG*d[5mC]*d[5mC]*d[5mC]*dA*dA*dG*d[5mC]*eA*eG*eA*eA*eG) [compound 416427],5%
11,416523 (antisense eT*e[5mC]*eT*e[5mC]*eG*dA*dG*dG*dG*d[5mC]*dT*dG*dA*dG*dA*eA*eT*eT*eG*e[5mC]) [compound 416523],18%
12,416503 (antisense eT*eA*eG*e[5mC]*e[5mC]*dA*d[5mC]*d[5mC]*d[5mC]*d[5mC]*dG*d[5mC]*dG*dG*dG*e[5mC]*eT*eG*eG*e[5mC]) [compound 416503],0%
13,416511 (antisense eT*eT*eG*e[5mC]*eT*dG*dG*dG*dA*dG*dG*dA*d[5mC]*dG*dA*eG*eG*e[5mC]*e[5mC]*eT) [compound 416511],35%
14,416537 (antisense eT*eG*eA*e[5mC]*e[5mC]*dA*d[5mC]*dT*d[5mC]*dT*dT*d[5mC]*d[5mC]*dG*dA*eG*e[5mC]*eA*eG*e[5mC]) [compound 416537],55%
15,416467 (antisense e[5mC]*e[5mC]*e[5mC]*eT*eG*dG*d[5mC]*d[5mC]*d[5mC]*d[5mC]*dA*dG*d[5mC]*dT*dG*eA*e[5mC]*eG*eA*eT) [compound 416467],55%
16,416450 (antisense eG*eG*eT*eT*eT*dG*d[5mC]*dT*dG*dG*d[5mC]*dA*dT*dT*dT*e[5mC]*eT*eT*eT*eT) [compound 416450],49%

# Same assay, conditions: HepB3 cells; gapmers (5-10-5, 3-14-3, 2-13-5 MOE) targeted to nucleobases 4868 to 4899 of SEQ ID NO: 1
row,Substance,% Inhibition of human Factor 7 mRNA levels
1,422145 (antisense eG*e[5mC]*e[5mC]*e[5mC]*eG*dA*dG*dT*dT*d[5mC]*dT*dG*d[5mC]*dA*dG*eG*eA*eG*e[5mC]*eG) [compound 422145],57%

# Same assay, conditions: HepB3 cells; gapmers targeted to nucleobases 11830 to 11869 of SEQ ID NO: 1 (Table 9)
row,Substance,% Inhibition of human Factor 7 mRNA levels
1,422090 (antisense eG*eG*eT*e[5mC]*eA*dG*dG*dG*d[5mC]*dT*dG*dG*dT*dT*dT*eT*eG*eG*eA*eG) [compound 422090],42%
2,422156 (antisense eG*eG*eT*d[5mC]*dA*dG*dG*dG*d[5mC]*dT*dG*dG*dT*dT*dT*dT*dG*eG*eA*eG) [compound 422156],38%
3,422091 (antisense eT*eG*eG*eT*e[5mC]*dA*dG*dG*dG*d[5mC]*dT*dG*dG*dT*dT*eT*eT*eG*eG*eA) [compound 422091],42%
4,422160 (antisense e[5mC]*eA*eA*dT*dG*dG*dT*d[5mC]*dA*dG*dG*dG*d[5mC]*dT*dG*dG*dT*eT*eT*eT) [compound 422160],42%

# Same assay, conditions: HepB3 cells; gapmers targeted to nucleobases 14707 to 14732 of SEQ ID NO: 1 (Table 11)
row,Substance,% Inhibition of human Factor 7 mRNA levels
1,422133 (antisense eA*eG*e[5mC]*eA*eG*d[5mC]*d[5mC]*dT*dG*dA*dG*dG*d[5mC]*d[5mC]*dA*eG*e[5mC]*eA*eG*eA) [compound 422133],65%
2,422283 (antisense e[5mC]*eA*dG*d[5mC]*dA*dG*d[5mC]*d[5mC]*dT*dG*dA*dG*dG*d[5mC]*d[5mC]*eA*eG*e[5mC]*eA*eG) [compound 422283],50%
3,422279 (antisense eA*eG*d[5mC]*d[5mC]*dT*dG*dA*dG*dG*d[5mC]*d[5mC]*dA*dG*d[5mC]*dA*eG*eA*eT*e[5mC]*eA) [compound 422279],56%
4,422202 (antisense eA*eG*e[5mC]*d[5mC]*dT*dG*dA*dG*dG*d[5mC]*d[5mC]*dA*dG*d[5mC]*dA*dG*dA*eT*e[5mC]*eA) [compound 422202],49%

# Same assay, conditions: HepB3 cells; gapmers targeted to nucleobases 15188 to 15211 of SEQ ID NO: 1 (Table 13)
row,Substance,% Inhibition of human Factor 7 mRNA levels
1,422227 (antisense eG*e[5mC]*dA*dT*dG*dG*dT*dG*dA*dT*dG*d[5mC]*dT*dT*d[5mC]*eT*eG*eA*eA*eT) [compound 422227],67%
2,422153 (antisense e[5mC]*eA*eT*dG*d[5mC]*dA*dT*dG*dG*dT*dG*dA*dT*dG*d[5mC]*dT*dT*e[5mC]*eT*eG) [compound 422153],67%
